Results from US20220395477A1, “COMPOSITIONS AND METHODS FOR PREVENTING AND TREATING RESPIRATORY SYNCYTIAL VIRUS INFECTION” (priority 2019, published 2022).

System: RSV Line 19 (rA2-KL19F)
Experiment: RFP (mKate2)-expressing RSV infection of A549 cells pretreated with SCFAs 24 hours before infection (RFP/DAPI)
Type: cell-based, Human Respiratory Syncytial Virus
Conditions: single SCFA 100 to 300 μM, 3 MOI, imaged after 48 hours
Protocol: Images taken after 48 Hrs.
Cells were infected at 3 MOI of RSV Line 19 (rA2-KL19F) expressing a red fluorescent marker, mKate2, as well as the F protein from the mucogenic clinical strain, and media was replaced with the appropriate SCFAs that was previously used in cultured. After 48 hours, the cells were stained with NucBlue (life technologies) and imaged using a Keyence fluorescence microscope (FIGS. 4A-4B).

SMILES	expression of RFP-MKate (RFP/DAPI)
CC(=O)O [acetate]	reduces the expression of RFP-MKate
CCC(=O)O [propionate]	reduces the expression of RFP-MKate
